In brackets after ≈: the same amount, converted by molar mass. Where two headings read alike, the source gives them in different places.
Columns and labels:
P. acnes (ATCC 6919) = assay: Minimum Inhibitory Concentration (MIC) determination, microbroth dilution; assay type: cell-based, Propionibacterium acnes; conditions: API alone, 48 h anaerobic, ≥90% reduction in growth (OD600); for MIC: Cutibacterium acnes, ATCC6919, read-out: individual MIC
Method: P. acnes (ATCC 6919) was cultured on Brucella plates supplemented with 0.1 g/L hemin, 0.01 g/L vitamin K, and 5% (v/v) defibrinated sheep's blood at 37° C. under anaerobic conditions using a Gas-Pak (BD). For each assay, an inoculum of P. acnes was prepared by suspending a colony of P. acnes in 5 mL Reinforced Clostridium medium (RCM) and growing at 37° C. and 250 RPM under anaerobic conditions for 30 hours. […] Individual MIC values were determined for each drug according to the microbroth dilution method. […] Media without P. acnes and medium with P. acnes only were used for negative and positive controls, respectively, and contained the highest concentration of solvent used in each drug analysis. Plates were incubated under anaerobic conditions using a Gas-Pak (BD) for 48 hours at 37° C. Following incubation, each well was resuspended by pipetting and the optical density at 600 nm (OD600) was determined on a plate reader.

[1] = Testing of combination products in human subjects with acne; conditions: spot treatment
Description: The Formulation 1 was applied using Acne Treatment Pads one or two times per day.

[2] = tested on: S. epidermidis (ATCC 12228); assay: Fermentation of prebiotics by S. epidermidis; assay type: cell-based, Staphylococcus epidermidis; conditions: 2% prebiotic, six days anaerobic, compared to PBS control
Method: Preparation of Prebiotics: Glycerol, sucrose, β-lactose, and D-(+)-maltose were purchased from Sigma-Aldrich. Stock solutions of each prebiotic (4% w/v) were prepared in water and filtered through a 0.22 μm filter for sterilization.
Preparation of S. epidermidis conditioned media: S. epidermidis (ATCC 12228) was cultured on trypic soy broth (TSB) agar plates at 37° C. For each assay, an inoculum of S. epidermidis was prepared by suspending one colony of S. epidermidis from a TSB agar plate into 7 ml of TSB broth and growing at 37° C., 215 RPM for 16 hours. The overnight culture was subcultured by adding 100 μl of overnight culture to 10 ml of fresh TSB. Once mid-log phase was reached, the cells were pelleted by centrifugation, washed with PBS and resuspended in fresh PBS. In 15 ml culture tubes, 4.9 ml of Rich Broth (20 g/L yeast extract, 6 g/L TSB) was combined with 40 μl 0.5% phenol red indicator, 5 ml of 4% prebiotic (glycerol, sucrose, β-lactose, or D-(+)-maltose) or PBS as a control, and S. epidermidis (10^5 CFU/ml) and placed in an anaerobic Gas-Pak (BD). The cultures were incubated at 37° C., 215 RPM for 6 days. Following fermentation, the cells were pelleted and the supernatants were filtered through a 0.22 μm filter for sterilization.
No change in color occurred in PBS control (a).

P. acnes 6919 = assay: Time-kill assay; assay type: cell-based, Propionibacterium acnes; conditions: DRM1 30 mM or salicylic acid […] mM alone (2× MIC); combination […] + […]; RCM broth with 12% propylene glycol
[3] = tested on: P. acnes strains RMA#20660 and RMA#20661; assay: MIC against multi-resistant P. acnes strains; assay type: cell-based, Propionibacterium acnes
Method: Individual MIC values were determined for each drug according to the microbroth dilution method. Briefly, 2-fold serial dilutions of each drug (50 μl) were added to wells in a 96-well plate followed by 50 μl of the prepared P. acnes inoculum as described in Example 1. Media without P. acnes and medium with P. acnes only were used for negative and positive controls, respectively, and contained the highest concentration of solvent used in each drug analysis. Plates were incubated under anaerobic conditions using a Gas-Pak (BD) for 48 hours at 37° C. Following incubation, each well was resuspended by pipetting and the optical density at 600 nm (OD600) was determined on a plate reader.

biofilm-forming strains = tested on: biofilm-forming strains
Description: Biofilm formation is an important factor in P. acnes pathogenicity and biofilm is detected in approximately half of hair follicles of acne patients.

P. acnes = conditions: serial passage, 10 cycles of 72 hours, method written in future tense
Description: Resistance development may be measured by two methods: single step for the determination of spontaneous frequency of resistance development and serial passage for the determination of progressive resistance development.

With `O=C(O)CCCCCCCC(=O)O` [Azelaic acid, azelaic acid, reference compound] the MIC (P. acnes (ATCC 6919); P. acnes ATCC 6919) was 7.5 mM.

In the case of `O=C(OOC(=O)c1ccccc1)c1ccccc1` [BPO, benzoyl peroxide, reference compound], the “individual MIC” value (P. acnes (ATCC 6919); P. acnes 6919) is reported as 125 µg/mL, the MIC (P. acnes (ATCC 6919); P. acnes 6919) is reported as 125 µg/mL and the “hyperpigmentation (dark spot side effect)” value [1] is reported as “dark spot side effect observed”.

`CCC[C@@H]1C[C@@H](C(=O)N[C@@H]([C@H]2O[C@H](SC)[C@H](O)[C@@H](O)[C@H]2O)[C@H](C)Cl)N(C)C1` [Clindamycin, clindamycin, reference compound] gave an MIC (P. acnes (ATCC 6919); P. acnes 6919) of 0.063 µg/mL.

With `OC[C@H]1O[C@H](O[C@H]2[C@H](O)[C@@H](O)[C@H](O)O[C@@H]2CO)[C@H](O)[C@@H](O)[C@@H]1O` [D-(+)-maltose] the “acidification of media (phenol red colour) by S. epidermidis fermentation” value (shortened to “acidification of media”) [2] was “change of color from red to yellow”.

For `O=C(O)CCC(=O)O` [DRM1, succinic acid], the “individual MIC” value (P. acnes (ATCC 6919); P. acnes 6919) was 1771 µg/mL, the “individual MIC” value (P. acnes (ATCC 6919); P. acnes ATCC 6919) was 15 mM and the MIC (P. acnes (ATCC 6919); P. acnes 6919) was 1770 µg/mL. The MIC (P. acnes (ATCC 6919); P. acnes ATCC 6919) was 15 mM, the “growth on plate after 15 minutes” value (P. acnes 6919) was “growth was evident” and the MIC ([3]; Cutibacterium acnes, each of RMA#20660 and RMA#20661 (resistant to erythromycin, clindamycin, minocycline, doxycycline), ≥90% decrease in growth, OD600) was 15 mM (≈ 1770 µg/mL). The “bactericidal activity against antibiotic-resistant P. acnes strains” value ([3]; RMA#20660 and RMA#20661) was “bactericidal”, the “concentration preventing biofilm formation” value (biofilm-forming strains) was ≥ 7.5 mM and the “spontaneous or progressive resistance development” value (P. acnes) was “did not develop spontaneous or progressive resistance”.

Work on `O=C(O)c1ccccn1` [Picolinic acid, picolinic acid] yielded an MIC (P. acnes (ATCC 6919); P. acnes ATCC 6919) of 1.88 mM.

In the case of `O=C(O)c1ccccc1O` [Salicylic Acid, salicylic acid, reference compound], the MIC (P. acnes (ATCC 6919); P. acnes ATCC 6919) is reported as 7.5 mM and the “growth on plate after 15 minutes” value (P. acnes 6919) is reported as “growth was evident”.

For `OCC(O)CO` [glycerol], the “acidification of media” value [2] was “change of color from red to yellow”.

With `OC[C@H]1O[C@@](CO)(O[C@H]2O[C@H](CO)[C@@H](O)[C@H](O)[C@H]2O)[C@@H](O)[C@@H]1O` [sucrose] the “acidification of media” value [2] was “change of color from red to yellow”.

In the case of `OC[C@H]1O[C@@H](O[C@H]2[C@H](O)[C@@H](O)[C@H](O)O[C@@H]2CO)[C@H](O)[C@@H](O)[C@H]1O` [β-lactose], the “acidification of media” value [2] is reported as “change of color from red to yellow”.
